How the values were obtained:
27mer DNA template [1] = assay: Melting temperatures of DNA template with probes and ligation products; format: physicochemical; conditions: hybridization target against 27mer template; 250 mM NaCl in buffer; 1 μM each oligonucleotide
Experimental: Melting temperature of probes and ligation products in hybridization buffer (50 mM MOPS pH 7.5, 250 mM NaCl) were measured using a Beckman-Coulter DU 640 spectrophotometer equipped with a high performance temperature controller and micro auto six-cell holder. Samples at 1 μM concentration of each oligonucleotide were heated to 90° C. and slowly cooled to RT over 1-1.5 h before the measurements. Melting temperature values were obtained by cooling samples from 90° C. to 20° C. at the rate of 1° C./min and measuring at 1° C. increments with each read averaged over 1 s.

27mer DNA template [2] = assay: Template-driven ligation of tetrazine and cyclopropene oligonucleotide probes (fluorescence); format: biochemical; conditions: for change in fluorescence in the absence of template: 1 μM probes, no template
Experimental: Tetrazine and cyclopropene-modified oligonucleotide probes were ligated in the presence of a DNA or RNA template at a 1:1:1 ratio. Reactions were done in varying solution and temperature conditions, as indicated. Main hybridization buffer was 50 mM MOPS at pH 7.5, 250 mM NaCl. Ligation reactions with a mismatched DNA template were performed in 5 mM MgCl2 in standard 1× Tris-borate buffer (purchased as 10× UltraPure TBE from Invitrogen: 1.0 M Tris pH 8.4, 0.9 M Boric acid, 10 mM EDTA).
Ligation reactions were done in standard 96 fluorescence well plates using SpectraMax GeminiXS (Molecular Devices). Temperature was set by the instrument. Where indicated by standard deviations, experiments were performed multiple times. In order to avoid any secondary structure artifacts, DNA or RNA template with added tetrazine probe was first heated to 90° C. and crash-cooled on ice for 2 min right before the experiment. Each well was filled with a total of 100 μL reaction solution, and reactions were timed from the addition of the cyclopropene probe as the last step before starting the measurements. Wells were scanned every 20-60 s depending on the speed of the reactions by using 485 nm excitation and 538 nm emission with the cutoff set at 495 nm. Control reactions without template were done in parallel each time. Buffer-only well intensities were subtracted from the measured raw data before analysis. Data was analyzed using GraphPad Prism 6.0 by applying a nonlinear fit of a one-phase association to each curve where fluorescein signal during reaction was measured.

[3] = Oligonucleotide probe stability in buffer and cell media; format: physicochemical; conditions: over a 35-hour period
[4] = tested on: LS174T human colon cancer cells; assay: Simultaneous imaging of two metabolically incorporated unnatural sugars and cross reactivity; format: cell-based
Experimental: (§1) The SKBR3 and LS174T cells were incubated for two days in the presence of 100 μM of Ac4ManNCyc and/or 50 μM Ac4GlcNAz on a Lab-Tek chamber slide maintained in cDMEM medium. Treatment of cells with tunicamycin was done by preparing a 0.2 mg/mL stock in DMSO, which was diluted to a final working concentration of 1.2 μM tunicamycin in cDMEM (0.5% DMSO). Cells were washed 3× with phosphate-buffered saline (PBS) and incubated for 1 hour at 37° C. in 10 μM tetrazine-BODIPY TMR-X, 10 μM tetrazine-Alexa flour 488 and/or 15 μM dibenzocyclooctyne (DIBO)-Alexa Fluor 647 in cDMEM. The media was aspirated, and cells were washed twice with PBS before imaging. All photos were collected with an Olympus FV1000 confocal microscope using ImageJ 1.45j software package.
Finally, we tested whether or not we could simultaneously image two different metabolically incorporated unnatural sugar derivatives, Ac4ManNCyc and tetraacetylated N-azidoacetylgalactosamine (Ac4GalNAz). […] Recent experimental work has shown that alkenes and azides can be mutually orthogonal to each other, even when using highly strained trans-cyclooctenes. Additionally, the Houk group has calculated that methyl-cyclopropene handles, such as those we have previously developed, should be mutually orthogonal to azide cyclooctyne reactions. We incubated LS174T human colon cancer cells with 100 μM Ac4ManNCyc and Ac4GalNAz for 2 days. After incubation, we sequentially stained the cells with 10 μM tetrazine-Alexa Fluor 488 and 15 μM dibenzocyclooctyne (DIBO) 647. […] Similar results were obtained with the SKBR3 cell line. […] The ability to simultaneously label two different metabolically incorporated molecules using live-cell compatible inverse-Diels-Alder and Huisgen reactions expands the capabilities of bioorthogonal metabolic imaging.

[5] = Aqueous stability of methyl-cyclopropenes by 1H NMR; format: physicochemical; conditions: for aqueous stability: aqueous deuterated solutions (D2O/DMSO-d6=4:1)
From the text: (§2) After synthesizing the new cyclopropene mini-tags, we next sought to compare their reactivity with tetrazines through inverse Diels-Alder cycloaddition. Additionally, we also assayed their aqueous stability, since methyl-cyclopropene tags are envisioned to find application in bioorthogonal coupling reactions. In order to monitor kinetics, we reacted eight representative methyl-cyclopropenes with 1-methyl-4-aryl tetrazine under pseudo-first order conditions, and tracked the reaction of tetrazine by monitoring the disappearance of the characteristic absorption at 530 nm, similar to previous reports. For stability experiments, we incubated methyl-cyclopropenes in aqueous deuterated solutions (D2O/DMSO-d6=4:1) as indicated.

[6] = Reactivity of methyl-cyclopropene mini-tags with tetrazine, pseudo-first order; format: physicochemical; conditions: for rate of reaction with tetrazines (in words): aqueous solvent
From the text: as §2

[7] = Storage stability of cyclopropene derivatives; format: physicochemical; conditions: for storage stability at −20° C.: stored at −20° C.
SKBR3 cells = assay: Live-cell microscopy of metabolically incorporated cyclopropene sugar; format: cell-based, human; conditions: glycosylation inhibitors or 20 mM ManNAc as competitive substrate
Experimental: SKBR3 and LS 174T cells were grown in cDMEM media supplemented with 10% fetal bovine serum, 1% L-glutamine, 1% penicillin/streptomycin. Cells were incubated in 5.0% carbon dioxide, 95% humidity at 37° C. Generally, cells were grown in T-75 tissue culture flasks, seeded at densities between 500,000 and 750,000 cells per flask (cells were quantified with the Life Technologies Countess automated cell counter). The cells were trypsinized with TrypLE Express and resuspended in cDMEM. Cells were allowed to incubate for two days before supplementing with Ac4ManNCyc (N-cyclopropeneacetylmannosamine) or Ac4GlcNAz (N-azidoacetylglucosamine). The cells were then analyzed via confocal microscopy and flow cytometry as described below.
as §1
In order to determine if Ac4ManNCyc was incorporated effectively by cells, we incubated adherent human breast cancer (SKBR3) and colon cancer (LS174T) cell lines with 100 μM Ac4ManNCyc for 48 hours in cell media and serum. After incubation, cells were thoroughly washed and then reacted for 1 hour with 10 μM of fluorogenic Alexa Fluor 488 tetrazine. After a second wash, cells were imaged by confocal microscopy (Olympus FV1000). […] In order to ensure that the staining was due to glycan uptake of the probe, we also performed controls by exposing cells to 100 μM Ac4ManNCyc and inhibiting uptake by using glycosylation inhibitors (ie. tunicamycin and αBnGalNAc) or 20 mM of ManNAc as a competitive substrate.^[14] […] These experiments provide evidence that the staining patterns are reporting on glycosylation and uptake of the unnatural cyclopropene mannosamine. We also performed additional studies using flow cytometry to quantitate the relative uptake of sugars that corroborated the imaging data.

[8] = Reaction rate determination of cyclopropenes with tetrazine 3; format: physicochemical
Experimental: A tetrazine 3 stock solution was prepared in DMSO and used to prepare tetrazine solutions at 0.6 mM final concentration in 12% v/v DMSO in ddH2O. Reactions were initiated with excess cyclopropene at final concentrations of 6.0, 8.0, and 10.0 mM. The disappearance of the tetrazine absorption peak at 520 nm was tracked over the reaction timeframe by measuring the absorption spectra using a NanoDrop 2000c spectrophotometer (Thermo Scientific). Samples were placed in a quartz cuvette with 10-mm pathlength and stirred at the maximum speed setting of the instrument. The temperature was uncontrolled by the instrument for room temperature (20° C.) measurements, and set and equilibrated at 37° C. for the higher temperature experiments.
Absorption spectra were measured manually over time. Absorption peak signal was taken as the average of measurements at 519-521 nm. Baseline signal was determined as the sloping line connecting the measured background levels preceding and following the tetrazine peak (410-430 nm and 590-610 nm, respectively). Final peak intensity value was taken as the signal above the baseline. Reaction rates were obtained by fitting the exponential decays of tetrazine peak absorption intensity as a pseudo first order reaction. Nonlinear data fits were performed with GraphPad Prism. Tetrazine reactions with cyclopropene carbamate 5 were carried out at 20 and 37° C. (data points and corresponding fitted curves at 20° C. in FIG. 51, 37° C. in FIG. 2c). Tetrazine reactions with cyclopropene carboxamide 2 were done at 37° C. ([…]. A representative comparison fit is shown for cyclopropenes 5 and 2 at 8.0 mM concentration reacting at 37° C. with 0.6 mM tetrazine.

13merFl5′tet: 5′-tetrazine-/5AmMC6//iFluorT/CG ATG GCG TCA A-3′ (SEQ ID NO:4) (DNA CGATGGCGTCAA; 5' tetrazine, amino C6 linker, internal fluorescein-dT, chemistry not fully specified)
Melting T (27mer DNA template [1]): 57.4 °C
change in fluorescence in the absence of template (27mer DNA template [2]; listed as 13merF15′tet): no appreciable change in fluorescence over time
change in fluorescence in the absence of template (27mer DNA template [2]; listed as Fluorogenic tetrazine probe): does not turn on
increase in the peak emission intensity (27mer DNA template [2]; reaction with the cyclopropene probe in the presence of a DNA template): 9.3 fold
autohydrolytic turn-on [3]: minimal

CC(=O)OC[C@H]1OC(OC(C)=O)[C@H](NC(=O)CN=[N+]=[N-])[C@@H](OC(C)=O)[C@H]1OC(C)=O (stereo partly drawn) [Ac4GalNAz, tetraacetylated N-azidoacetylgalactosamine, reference compound]
cell surface staining after co-incubation of both sugars ([4]; 100 μM, 2 days, stained with 10 μM tetrazine-Alexa Fluor 488 and 15 μM DIBO 647): cell surface staining in both the fluorescent channels
cross reactivity: surface staining with tetrazine-Alexa Fluor 488 ([4]; cells incubated with only this sugar): minimal surface staining

CC1=CC1/C=C/C(=O)O (stereo not drawn) [Compound 13]
aqueous stability [5]: unstable to incubation in aqueous solvent at 37 °C

CC1=CC1/C=C/C(=O)NCCO (stereo not drawn) [Compound 14]
rate of reaction with tetrazines (in words) [6]: significantly lowered the rate of reaction with tetrazines
aqueous stability [5]: greatly improved stability

CC1=CC1/C=C/CO (stereo not drawn) [Compound 16]
rate of reaction with tetrazines (in words) [6]: greatly increased the reaction rate
time to complete decomposition ([5]; D2O/DMSO-d6=4:1 at room temperature): 10.5 h
aqueous stability [5]: unstable in aqueous solution
storage stability at −20° C. [7]: not stable to long-term storage

CC(=O)N[C@H]1[C@@H](O)[C@H](O)[C@@H](CO)O[C@@H]1O [ManNAc]
effect on staining of cells exposed to 100 μM Ac4ManNCyc (SKBR3 cells): lowered fluorescent signal

CC1=C([Si](C)(C)C)C1C=O (stereo not drawn) [cyclopropen aldehyde 11]
storage stability at −20° C. [7]: slowly degrading over 48 hours

CC1=CC1C(N)=O (stereo not drawn) [cyclopropene 2, 2-methylcycloprop-2-enecarboxamide]
long-term storage stability [7]: could be stored for extended periods of time without degradation
second order rate constant ([8]; 37° C., water/DMSO (12% DMSO by volume)): 0.137 ± 0.004 M⁻¹ s⁻¹

CC1=C([Si](C)(C)C)C1CN (stereo not drawn) [cyclopropene amine 3]
long-term storage stability [7]: not amenable long-term storage

CC1=C([Si](C)(C)C)C1CN=[N+]=[N-] (stereo not drawn) [cyclopropene azide 2]
long-term storage stability [7]: not amenable long-term storage

CC(=O)N[C@H]1[C@@H](OCc2ccccc2)O[C@H](CO)[C@H](O)[C@@H]1O [αBnGalNAc]
effect on staining of cells exposed to 100 μM Ac4ManNCyc (SKBR3 cells): severely diminished staining

cyclopropene carbamate
rates of cycloaddition with unsubstituted tetrazine relative to methyl-tetrazine ([6]; previous studies with faster reacting unsubstituted tetrazine): 36 fold faster
rate of cycloaddition relative to cyclopropene amide 1 ([8]; reacting with tetrazine 3 in aqueous solution): approximately one-hundred times faster

tunicamycin
effect on staining of cells exposed to 100 μM Ac4ManNCyc (SKBR3 cells): severely diminished staining
